Values after ≈ are worked out from the molar mass of the structure shown. Values joined by “and” are separate entries in the source; they are usually repeats but may differ in a detail not shown here. Identical values can stand only once. Like-named read-outs stand apart in the source and are kept apart here. Marks after values point to notes of the source that are not given here.
How the values were obtained:
[1] = test system: Staphylococcus aureus (strains 29213 and 43300); assay: Microdilution antibiotic susceptibility assay (MIC, CLSI guidelines); assay type: cell-based; details: for MIC: Staphylococcus aureus, MH media, oxacillin: 30° C., 18-24 h, 2% NaCl, read-out: estimated minimum inhibitory concentration from this study
Description: Testing for S. aureus susceptibility to oxacillin differed with incubation at 30° C. for 18-24 h in MH media supplemented with 2% NaCl.
Values listed in Table 2 below include the estimated minimum inhibitory concentration from this study (μg/mL), the determination of(S) sensitive or (R) resistant microbes according to CLSI criteria, and the CLSI guidelines (μg/mL) for the species being tested. Empty cells were not evaluated.

[2] = test system: Staphylococcus aureus (strains 29213 and 43300); details: cited from earlier work
[3] = test system: Staphylococcus aureus (strains 29213 and 43300); assay: READAS electrochemical current response with PMS mediator (ASIn); assay type: cell-based; details: for ASIn (antibiotic susceptibility index), single replicates: oxacillin 20× breakpoint (120 μg/mL), ASI20, 30° C., 15 μM PMS, 0.1 OD600
Description: Each measurement was replicated at least four times.
(S. aureus experiments) or 37° C. (all others) MH media.
The current responses measured follows a sigmoidal curve structure.
As a second example method of operation, the S. aureus strains selected from Table 2 were assessed. Initially, a 2×CLSI resistance breakpoint concentrations for two antibiotics oxacillin (12 μg/mL) and tobramycin (32 μg/mL) were used for the example method of operation. The ASI2<0.4 and it was concluded that the concentration of the antibiotics was insufficient to classify the strains as antibiotic-susceptible or -resistant. S. aureus was then treated with 4×, 6×, 8×, 10×, and 20× the breakpoint concentration of oxacillin and was compared to the control as depicted in FIG. 8A. […] S. aureus was also treated with 4× and 10× the breakpoint concentration of tobramycin and was compared to the control depicted in FIG. 8B. […] The efficacy of antibiotic was proportional to the concentration when a high cell density (1.1×10^8 CFU/mL) was used.
The ASIn analysis time for classifying the strains as resistant or susceptible for tobramycin treatment was 33-78 min which was 30 min less than needed for detecting oxacillin susceptibility which required 60-96 min.

[4] = test system: Gram-positive 1 ATCC 29213, Gram-positive 2 BAA-1026; assay: READAS operator blinded test; assay type: cell-based; details: oxacillin 2× (12 μg/mL); for ASIn: OD600=0.1
Description: Tests were conducted for which the species or resistance phenotype was not known beyond the fact that one set was a Gram-positive and the other Gram-negative, and the antibiotics to be tested were oxacillin and imipenem, respectively. The isolates were provided as coded streak plates. Because the species were unknown, the breakpoint concentration of oxacillin and imipenem were estimated from the known breakpoints of the four previously tested strains (as shown in Table 1; 6 μg/mL for oxacillin, S. aureus and 6 μg/mL imipenem for Gram-negative strains). Following the decision methodology for determining antibiotic susceptibility and resistance of READAS, the strains were first tested with 2× the resistance breakpoint concentration (12 μg/mL oxacillin or imipenem) and the ASI2 was measured. This was increased up to 24× the resistance breakpoint concentration. If ASI2≥0.4 then the strain was considered susceptible. […] If neither strain achieved an ASI2≥0.4, 24× the resistance breakpoint concentration was tested and the ASI24 was measured.
As another example method of operation, operator blinded tests were conducted using susceptible and resistant strains of Gram-positive and -negative bacteria. Because the species identification was unknown, […] oxacillin was chosen as the estimated resistance breakpoint for the Gram-positive strain and 6 μg/mL imipenem was initially chosen as the resistance breakpoint for the Gram-negative strain. The stains selected for this example method of operation include Gram-positive 1 ATCC 29213, Gram-positive 2 BAA-1026, Gram-negative 1 AR55 and Gram-negative 2 AR58 with cultures of OD600=0.1, for simplicity.
(§1) Both Gram-positive strains were correctly classified using 2×(12 μg/mL oxacillin) in <120 min (97±45 min and 103±33 min). The Gram-negative strains were also correctly classified after increasing concentrations of imipenem from 2× to 20×(12 to 120 μg/mL imipenem). […] These phenotypic results were confirmed with results of standard procedure known to those skilled in the art and are included in Table 4 below, wherein READAS(S) susceptibility was defined by an ASIn≥0.4; (R) resistant was defined by an ASIn<0.4; analysis time shown in minutes. The standard procedure established susceptibility or resistance, MIC in μg/mL, and analysis time shown in hours.

[5] = test system: Gram-positive 1 ATCC 29213, Gram-positive 2 BAA-1026; assay: Standard procedure confirming blinded test (susceptibility, MIC, analysis time); assay type: cell-based; parameters: key to Standard procedure susceptibility or resistance (second symbol of cell): S: The standard procedure established susceptibility or resistance; R: The standard procedure established susceptibility or resistance
Description: as §1

A. baumannii strain 78 = assay: Absorbance growth curves on increasing concentration of the electron transfer mediator; assay type: cell-based, Acinetobacter baumannii; details: PMS concentrations higher than 15 μM; MH media; FIG. 3B
Description: […] The wells were inoculated to 0.1 OD600 for a total volume of 200 μL. The plates were continuously mixed by an orbital motion and maintained at 37° C. or 30° C. for S. aureus and oxacillin. Absorbance growth curves were recorded at 600 nm for 24 h and growth curves were presented as the average of three technical replicates with standard deviation.
Error bars represent standard deviation of three replicates. With this PMS concentration of 15 μM, Gram-negative species of bacteria with OD600=0.1 (approximately 10^7 and 10^8 cells per mL; Table 2) consistently had analysis times in less than 90 min, as illustrated by FIG. 3C. The current magnitude is shown to increase with increasing cell density while the response time is seen to be decreased with increasing cell density. Error bars are the standard deviation of four replicates in FIG. 3C. Increasing the cell density also contributed to the “inoculum effect” of antibiotic efficacy resulting in the need for higher concentrations of antibiotics to differentiate sensitive and resistant strains.

Structure (SMILES)	MIC ([1]; strain 29213)	MIC ([1]; strain 43300)	sensitive or resistant according to CLSI criteria ([1]; strain 29213)	sensitive or resistant according to CLSI criteria ([1]; strain 43300)	CLSI guidelines (resistance breakpoint) for the species [2]	current response with increasing antibiotic concentration ([3]; oxacillin 4×, 6×, 8×, 10×, 20× breakpoint (FIG. 8A), tobramycin 4× and 10× (FIG. 8B), […]10^8 CFU/mL)	ASIn (antibiotic susceptibility index), single replicates ([3]; strain 29213 (susceptible))	average ASI20 (±SE) ([3]; strain 43300 (resistant), oxacillin 20× (120 μg/mL))	ASIn (antibiotic susceptibility index), single replicates ([3]; strain 43300 (resistant))	READAS susceptibility (first symbol of cell) ([4]; Gram-positive 1 (ATCC 29213))	ASIn ([4]; Gram-positive 1 (ATCC 29213))	READAS susceptibility (first symbol of cell) ([4]; Gram-positive 2 (BAA-1026))	ASIn ([4]; Gram-positive 2 (BAA-1026))	MIC ([5]; Gram-positive 1 (ATCC 29213))	Standard procedure susceptibility or resistance (second symbol of cell) ([5]; Gram-positive 1 (ATCC 29213))	MIC ([5]; Gram-positive 2 (BAA-1026))	Standard procedure susceptibility or resistance (second symbol of cell) ([5]; Gram-positive 2 (BAA-1026))	inhibition of bacterial growth by the electron transfer mediator (A. baumannii strain 78)
Cc1onc(-c2ccccc2)c1C(=O)N[C@@H]1C(=O)N2[C@@H]1SC(C)(C)[C@@H]2C(=O)O [Oxacillin, oxacillin]	0.5 µg/mL (≈ 1.25 µM)	32 µg/mL (≈ 79.7 µM)	S	R	6 µg/mL	decreased with increasing oxacillin concentration except at low doses where no effect or an increase in the current is observed	0.4 and 0.63 and 0.59	0.17±0.13	0.4 and 0.63 and 0.59	S/S (READAS(S) susceptibility was defined by an ASIn≥0.4)	0.55 ± 0.14^b	R/R ((R) resistant was defined by an ASIn<0.4)	−0.04 ± 0.19^b	0.5 µg/mL (≈ 1.25 µM)	S/S	≥ 4 µg/mL	R/R	–
COS(=O)(=O)[O-].C[n+]1c2ccccc2nc2ccccc21 [PMS, phenazine methosulfate]	–	–	–	–	–	–	–	–	–	–	–	–	–	–	–	–	–	higher concentrations produced variable degrees of inhibition between strains

From patent publication US20240426776A1, “RAPID DIFFERENTIATION OF ANTIBIOTIC-SUSCEPTIBLE AND -RESISTANT BACTERIA THROUGH MEDIATED EXTRACELLULAR ELECTRON TRANSFER” (priority 2021, published 2024)
